According to patent US8802597B2, “Herbicidal pyrimidines” (E I du Pont de Nemours and Company, priority 2003, dated 2014):

Columns and labels:
Test in all cases: Test C pre/postemergence
Type in all cases: in vivo
[1] = system: Surinam grass (Brachiaria decumbens); conditions: for Surinam Grass plant response rating: scale 0 to 100 (0 no effect, 100 complete control)
Method in brief: (§1)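 Greenhouse pot test: seeds treated preemergence, or plants at 2–18 cm (1- to 4-leaf stage) treated postemergence, with compound in non-phytotoxic solvent plus surfactant. Visual rating versus untreated controls after 12–14 days, scale 0 (no effect) to 100 (complete control); dash means not tested.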

[2] = system: cocklebur (Xanthium strumarium); conditions: for Cocklebur plant response rating: scale 0 to 100 (0 no effect, 100 complete control)
Method in brief: as §1

[3] = system: common (oilseed) sunflower (Helianthus annuus); conditions: Preemergence
Method in brief: as §1

[4] = system: corn (Zea mays); conditions: for Corn plant response rating: scale 0 to 100 (0 no effect, 100 complete control)
Method in brief: as §1

[5] = system: crabgrass (Digitaria sanguinalis); conditions: Postemergence; for Crabgrass plant response rating: scale 0 to 100 (0 no effect, 100 complete control); for Plant response rating, Crabgrass: scale 0 to 100
Method in brief: as §1

[6] = system: eastern black nightshade (Solanum ptycanthum); conditions: Preemergence
Method in brief: as §1

[7] = system: giant foxtail (Setaria faberii); conditions: for Foxtail, Giant plant response rating: scale 0 to 100 (0 no effect, 100 complete control)
Method in brief: as §1

[8] = system: johnsongrass (Sorghum halepense); conditions: for Johnsongrass plant response rating: scale 0 to 100 (0 no effect, 100 complete control); for Plant response rating, Johnsongrass: scale 0 to 100
Method in brief: as §1

[9] = system: kochia (Kochia scoparia); conditions: for Kochia plant response rating: scale 0 to 100 (0 no effect, 100 complete control)
Method in brief: as §1

[10] = system: lambsquarters (Chenopodium album); conditions: for Lambsquarters plant response rating: scale 0 to 100 (0 no effect, 100 complete control)
Method in brief: as §1

[11] = system: morningglory (Ipomoea coccinea); conditions: for Morningglory plant response rating: scale 0 to 100 (0 no effect, 100 complete control)
Method in brief: as §1

[12] = system: soybean (Glycine max); conditions: for Soybean plant response rating: scale 0 to 100 (0 no effect, 100 complete control)
Method in brief: as §1

[13] = Postemergence, 250 g ai/ha, scale 0 to 100
[14] = Postemergence, 500 g ai/ha, scale 0 to 100
[15] = Preemergence, 62 g ai/ha, scale 0 to 100, 0 no effect, 100 complete control
[16] = Preemergence, 125 g ai/ha, scale 0 to 100
[17] = Preemergence, 250 g ai/ha, scale 0 to 100
[18] = Preemergence, 500 g ai/ha, scale 0 to 100
[19] = 62 g ai/ha, scale 0 to 100, 0 no effect, 100 complete control

Structure (SMILES): COC(=O)c1nc(C2CC2C)nc(N)c1Br (stereo not drawn) [Compound 28]
- Surinam Grass plant response rating ([1]; Postemergence, 62 g ai/ha): 0
- Surinam Grass plant response rating ([1]; Postemergence, 125 g ai/ha): 0
- Plant response rating, Surinam Grass [1, 13]: 0
- Plant response rating, Surinam Grass [1, 14]: 0
- Plant response rating, Surinam Grass [1, 15]: 0
- Plant response rating, Surinam Grass [1, 16]: 0
- Plant response rating, Surinam Grass [1, 17]: 0
- Plant response rating, Surinam Grass [1, 18]: 0
- Cocklebur plant response rating ([2]; Postemergence, 62 g ai/ha): 85
- Cocklebur plant response rating ([2]; Postemergence, 125 g ai/ha): 95
- Plant response rating, Cocklebur [2, 13]: 95
- Plant response rating, Cocklebur [2, 14]: 100
- Plant response rating, Cocklebur [2, 15]: 90
- Plant response rating, Cocklebur [2, 16]: 95
- Plant response rating, Cocklebur [2, 17]: 95
- Plant response rating, Cocklebur [2, 18]: 100
- Plant response rating, Sunflower [3, 19]: 45
- Plant response rating, Sunflower ([3]; 125 g ai/ha, scale 0 to 100): 50
- Plant response rating, Sunflower ([3]; 250 g ai/ha, scale 0 to 100): 100
- Plant response rating, Sunflower ([3]; 500 g ai/ha, scale 0 to 100): 100
- Corn plant response rating ([4]; Postemergence, 62 g ai/ha): 0
- Corn plant response rating ([4]; Postemergence, 125 g ai/ha): 0
- Plant response rating, Corn [4, 13]: 0
- Plant response rating, Corn [4, 14]: 0
- Plant response rating, Corn [4, 15]: 0
- Plant response rating, Corn [4, 16]: 0
- Plant response rating, Corn [4, 17]: 0
- Plant response rating, Corn [4, 18]: 0
- Crabgrass plant response rating ([5]; 62 g ai/ha): 0
- Crabgrass plant response rating ([5]; 125 g ai/ha): 0
- Plant response rating, Crabgrass ([5]; 250 g ai/ha): 0
- Plant response rating, Crabgrass ([5]; 500 g ai/ha): 20
- Plant response rating, Nightshade [6, 19]: 100
- Plant response rating, Nightshade ([6]; 125 g ai/ha, scale 0 to 100): 100
- Plant response rating, Nightshade ([6]; 250 g ai/ha, scale 0 to 100): 100
- Plant response rating, Nightshade ([6]; 500 g ai/ha, scale 0 to 100): 100
- Foxtail, Giant plant response rating ([7]; Postemergence, 62 g ai/ha): 0
- Foxtail, Giant plant response rating ([7]; Postemergence, 125 g ai/ha): 0
- Plant response rating, Foxtail, Giant [7, 13]: 0
- Plant response rating, Foxtail, Giant [7, 14]: 15
- Plant response rating, Foxtail, Giant [7, 15]: 0
- Plant response rating, Foxtail, Giant [7, 16]: 0
- Plant response rating, Foxtail, Giant [7, 17]: 0
- Plant response rating, Foxtail, Giant [7, 18]: 0
- Johnsongrass plant response rating ([8]; Postemergence, 62 g ai/ha): 0
- Johnsongrass plant response rating ([8]; Postemergence, 125 g ai/ha): 0
- Plant response rating, Johnsongrass ([8]; Postemergence, 250 g ai/ha): 0
- Plant response rating, Johnsongrass ([8]; Postemergence, 500 g ai/ha): 0
- Plant response rating, Johnsongrass ([8]; Preemergence, 250 g ai/ha): 0
- Kochia plant response rating ([9]; Postemergence, 62 g ai/ha): 75
- Kochia plant response rating ([9]; Postemergence, 125 g ai/ha): 85
- Plant response rating, Kochia [9, 13]: 95
- Plant response rating, Kochia [9, 14]: 95
- Plant response rating, Kochia [9, 15]: 0
- Plant response rating, Kochia [9, 16]: 80
- Plant response rating, Kochia [9, 17]: 90
- Plant response rating, Kochia [9, 18]: 100
- Lambsquarters plant response rating ([10]; Postemergence, 62 g ai/ha): 60
- Lambsquarters plant response rating ([10]; Postemergence, 125 g ai/ha): 75
- Plant response rating, Lambsquarters [10, 13]: 85
- Plant response rating, Lambsquarters [10, 14]: 95
- Plant response rating, Lambsquarters [10, 15]: 95
- Plant response rating, Lambsquarters [10, 16]: 100
- Plant response rating, Lambsquarters [10, 17]: 100
- Plant response rating, Lambsquarters [10, 18]: 100
- Morningglory plant response rating ([11]; Postemergence, 62 g ai/ha): 80
- Morningglory plant response rating ([11]; Postemergence, 125 g ai/ha): 95
- Plant response rating, Morningglory [11, 13]: 95
- Plant response rating, Morningglory [11, 14]: 95
- Plant response rating, Morningglory [11, 15]: 100
- Plant response rating, Morningglory [11, 16]: 100
- Plant response rating, Morningglory [11, 17]: 100
- Plant response rating, Morningglory [11, 18]: 100
- Soybean plant response rating ([12]; Postemergence, 62 g ai/ha): 75
- Soybean plant response rating ([12]; Postemergence, 125 g ai/ha): 85
- Plant response rating, Soybean [12, 13]: 95
- Plant response rating, Soybean [12, 14]: 95
- Plant response rating, Soybean [12, 15]: 0
- Plant response rating, Soybean [12, 16]: 45
- Plant response rating, Soybean [12, 17]: 65
- Plant response rating, Soybean [12, 18]: 90
